These are literature values, as cited in patent US5744472A, “1-(N'-(arylalkylaminoalkyl)) aminoisoindoles; a new class of dopamine receptor subtype specific ligands” (Neurogen Corporation, priority 1995, dated 1998).

Series [1] relates to extrapyramidal side effects (EPS).
Another series deals with D1 dopamine receptor. The settings on record: background statement.
The subject of a further series is D2 receptors. The conditions noted are these: background statement.

Where two headings read alike, the source gives them in different places.

As for `CN1CCN(C2=Nc3cc(Cl)ccc3Nc3ccccc32)CC1` [clozapine], in series [1] (compared with classical neuroleptics, background statement), the “incidence of extrapyramidal side effects” value is listed as “lesser incidence of extrapyramidal side effects (EPS) than classical neuroleptics”. Take `O=C(CCCN1CCC(O)(c2ccc(Cl)cc2)CC1)c1ccc(F)cc1` [haloperidol]: the “binding at the D1 dopamine receptor” value with D1 dopamine receptor is “binds relatively weakly”. In the series with D2 receptors, the “binding affinity at D2 receptors” value is on record as “subnanomolar range”. Take `CCN1CCCC1CNC(=O)c1cc(S(N)(=O)=O)ccc1OC` (stereo not shown) [sulpiride]: the “incidence of extrapyramidal side effects” value in series [1] (in vivo) is “lesser incidence of extrapyramidal side effects (EPS) than classical neuroleptics”.
